Paper PMC6894882 (PLoS Neglected Tropical Diseases, 2019)
Counter-ions that a name gives are not always drawn. Like-named read-outs stand apart in the source and are kept apart here. Marks after values point to notes of the source that are not given here.

Legend:
in vivo [1] = details: both, BALB/c, mouse, ip
Dengue Virus 2 = test: microbe, parasite or virus in culture; format: cell-based; design: SI50: unit not given beside the values
[2] = in vivo, cited from earlier work
Zika virus [3] = test: microbe, parasite or virus in culture; format: cell-based; design: SI50: unit not given beside the values
in vitro [4] = details: dog
in vitro [5] = details: mouse, plasma, pH 7.4
CYP1A2 = CYP1A2 (Homo sapiens, UniProt P05177); test: biochemical
in vitro [6] = details: human, plasma, pH 7.4
CYP2C9 = CYP2C9 (Homo sapiens, UniProt P11712); test: biochemical
Chikungunya virus = test: microbe, parasite or virus in culture; format: cell-based; design: SI50: unit not given beside the values
Murine norovirus = test: microbe, parasite or virus in culture; format: cell-based; design: SI50 / SI90: unit not given beside the values
Tacaribe virus = test: microbe, parasite or virus in culture; format: cell-based; design: SI50: unit not given beside the values
Herpes Simplex Virus 1 = test: microbe, parasite or virus in culture; format: cell-based; design: SI50 / SI90: unit not given beside the values
Rift Valley fever virus = test: microbe, parasite or virus in culture; format: cell-based; design: SI50: unit not given beside the values
in vitro [7] = details: non-human primate, microsomes
physchem = details: 20 °C, pH 7.4, aqueous buffer, kinetic from dmso stock
HeLa cells = details: cited from earlier work
Zika virus [8] = test: microbe, parasite or virus in culture; format: cell-based; design: SI50: unit not given beside the values; remark: listed apart in the source
Poliovirus 3 = test: microbe, parasite or virus in culture; format: cell-based; design: SI50: unit not given beside the values
[9] = mouse, in vivo; cited from earlier work
cytokines and chemokines = test system: cytokines and chemokines; design: species or system mice; details: mouse, in vivo
T. cruzi = details: mouse, in vivo; cited from earlier work
in vivo [10] = details: BALB/c, mouse, ip
Plasmodium falciparum = details: read-out: in vitro EC50; cited from earlier work
Hepatitis C virus = test: microbe, parasite or virus in culture; format: cell-based; design: SI50 / SI90: unit not given beside the values
Hepatitis B virus = test: microbe, parasite or virus in culture; format: cell-based; design: SI50 / SI90: unit not given beside the values
Influenza A virus H1N1 = test: microbe, parasite or virus in culture; format: cell-based; design: SI50: unit not given beside the values
EBOV in HeLa cells = format: cell-based, Ebola virus
[11] = test system: Ebola virus (Zaire strain); test: microbe, parasite or virus in culture; format: cell-based; design: SI50: unit not given beside the values
in vitro [12] = details: human, microsomes
Vaccinia Virus = test: microbe, parasite or virus in culture; format: cell-based; design: SI50 / SI90: unit not given beside the values
[13] = pH 7.4
in vitro [14] = details: guinea pig, microsomes
Human cytomegalovirus = test: microbe, parasite or virus in culture; format: cell-based; design: SI50 / SI90: unit not given beside the values
[15] = test system: Norovirus (human norovirus, GT1 strain); test: microbe, parasite or virus in culture; format: cell-based; design: SI90: unit not given beside the values
[16] = test system: Venezuelian equine encephalitis virus; test: organism not typed; format: cell-based; design: SI50: unit not given beside the values
[17] = mouse, in vivo
Yellow Fever virus = test: microbe, parasite or virus in culture; format: cell-based; design: SI50: unit not given beside the values
[18] = test system: Respiratory synactial virus; test: organism not typed; format: cell-based; design: SI50: unit not given beside the values
in vitro [19] = details: African green monkey
in vitro [20] = details: mouse
CYP2D6 = CYP2D6 (Homo sapiens, UniProt P10635); test: biochemical
MERS coronavirus = test: microbe, parasite or virus in culture; format: cell-based; design: SI50: unit not given beside the values
West Nile virus = test: microbe, parasite or virus in culture; format: cell-based; design: SI50: unit not given beside the values
in vitro [21] = details: African green monkey; remark: listed apart in the source
CYP2C19 = CYP2C19 (Homo sapiens, UniProt P33261); test: biochemical
in vitro [22] = details: human, Caco-2, pH 7.4
CYP3A4 = CYP3A4 (Homo sapiens, UniProt P08684); test: biochemical
in vitro [23] = details: mouse, microsomes
EBOV [24] = details: mouse, in vivo; cited from earlier work
EBOV [25] = details: in vivo; cited from earlier work
EBOV [26] = details: in vivo; cited from earlier work; remark: listed apart in the source
[27] = Hepatitis B virus, HepG2 2.2.15

Chain of CYP2C19 (P33261 whole entry): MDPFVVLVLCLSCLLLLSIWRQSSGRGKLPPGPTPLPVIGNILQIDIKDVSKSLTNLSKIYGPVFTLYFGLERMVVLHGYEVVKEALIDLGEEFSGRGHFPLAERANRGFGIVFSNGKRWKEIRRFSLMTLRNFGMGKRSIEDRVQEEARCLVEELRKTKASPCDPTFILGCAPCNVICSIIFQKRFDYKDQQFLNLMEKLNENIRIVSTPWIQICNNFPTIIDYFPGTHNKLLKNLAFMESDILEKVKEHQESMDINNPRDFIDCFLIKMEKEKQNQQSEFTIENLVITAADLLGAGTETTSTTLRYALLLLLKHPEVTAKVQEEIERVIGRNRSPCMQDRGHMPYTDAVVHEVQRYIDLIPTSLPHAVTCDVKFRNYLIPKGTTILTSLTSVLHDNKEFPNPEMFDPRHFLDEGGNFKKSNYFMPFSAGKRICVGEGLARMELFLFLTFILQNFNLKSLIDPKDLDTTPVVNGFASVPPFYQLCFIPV
Chain of CYP3A4 (P08684 whole entry): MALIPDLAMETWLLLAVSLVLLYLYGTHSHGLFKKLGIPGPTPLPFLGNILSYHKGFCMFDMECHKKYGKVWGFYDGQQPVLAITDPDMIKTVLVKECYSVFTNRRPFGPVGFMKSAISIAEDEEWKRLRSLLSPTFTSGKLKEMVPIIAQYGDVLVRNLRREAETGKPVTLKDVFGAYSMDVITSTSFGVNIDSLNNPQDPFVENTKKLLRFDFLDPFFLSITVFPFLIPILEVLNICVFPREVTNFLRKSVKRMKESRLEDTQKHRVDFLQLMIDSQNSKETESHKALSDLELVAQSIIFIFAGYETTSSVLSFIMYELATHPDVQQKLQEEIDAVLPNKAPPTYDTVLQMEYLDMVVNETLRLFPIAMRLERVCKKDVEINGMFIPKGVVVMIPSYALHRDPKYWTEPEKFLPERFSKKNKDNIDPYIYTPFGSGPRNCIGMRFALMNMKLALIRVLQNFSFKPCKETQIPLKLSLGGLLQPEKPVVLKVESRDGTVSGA
Chain of CYP2D6 (P10635 whole entry): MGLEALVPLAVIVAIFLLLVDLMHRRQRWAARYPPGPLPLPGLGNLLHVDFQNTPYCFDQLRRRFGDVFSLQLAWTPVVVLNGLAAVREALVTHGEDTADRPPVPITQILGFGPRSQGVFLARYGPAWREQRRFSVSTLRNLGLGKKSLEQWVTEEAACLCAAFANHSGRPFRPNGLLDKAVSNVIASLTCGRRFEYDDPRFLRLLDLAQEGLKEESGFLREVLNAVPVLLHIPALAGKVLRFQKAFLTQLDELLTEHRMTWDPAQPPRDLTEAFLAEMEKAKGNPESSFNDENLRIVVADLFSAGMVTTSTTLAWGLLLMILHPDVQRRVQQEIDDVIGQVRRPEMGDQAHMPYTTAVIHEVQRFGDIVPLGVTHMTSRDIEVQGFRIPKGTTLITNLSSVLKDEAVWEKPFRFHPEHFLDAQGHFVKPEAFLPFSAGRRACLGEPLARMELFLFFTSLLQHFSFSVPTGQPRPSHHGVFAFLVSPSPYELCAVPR
Chain of CYP2C9 (P11712 whole entry): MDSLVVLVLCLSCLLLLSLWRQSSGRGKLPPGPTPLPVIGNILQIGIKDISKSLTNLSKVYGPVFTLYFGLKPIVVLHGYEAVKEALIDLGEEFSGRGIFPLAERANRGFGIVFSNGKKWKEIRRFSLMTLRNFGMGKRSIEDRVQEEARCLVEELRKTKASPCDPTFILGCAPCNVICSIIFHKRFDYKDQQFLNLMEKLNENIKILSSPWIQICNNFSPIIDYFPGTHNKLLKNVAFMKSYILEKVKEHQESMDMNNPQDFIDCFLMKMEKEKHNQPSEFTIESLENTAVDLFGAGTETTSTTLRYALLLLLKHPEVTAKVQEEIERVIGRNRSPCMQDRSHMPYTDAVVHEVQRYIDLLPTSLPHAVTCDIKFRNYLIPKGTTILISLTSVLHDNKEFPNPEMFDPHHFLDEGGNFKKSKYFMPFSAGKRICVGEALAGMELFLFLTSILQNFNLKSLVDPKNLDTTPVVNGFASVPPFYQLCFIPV
Chain of CYP1A2 (P05177 whole entry): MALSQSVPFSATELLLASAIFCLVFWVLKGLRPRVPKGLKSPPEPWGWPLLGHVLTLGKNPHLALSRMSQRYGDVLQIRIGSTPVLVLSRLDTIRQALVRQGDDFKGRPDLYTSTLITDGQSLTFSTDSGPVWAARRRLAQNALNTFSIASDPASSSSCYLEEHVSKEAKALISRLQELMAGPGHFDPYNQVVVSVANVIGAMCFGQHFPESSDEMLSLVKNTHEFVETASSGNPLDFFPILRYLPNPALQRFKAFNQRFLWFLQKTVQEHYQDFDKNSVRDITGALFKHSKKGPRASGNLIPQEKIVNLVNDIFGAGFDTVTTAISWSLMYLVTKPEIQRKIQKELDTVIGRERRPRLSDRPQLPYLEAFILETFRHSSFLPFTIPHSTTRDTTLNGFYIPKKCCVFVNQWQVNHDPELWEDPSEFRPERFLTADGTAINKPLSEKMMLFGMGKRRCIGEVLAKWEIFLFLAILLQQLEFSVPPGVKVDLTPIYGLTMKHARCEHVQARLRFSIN

## COc1ccc2nc3cc(Cl)ccc3c(Nc3cc(CN4CCCC4)c(O)c(CN4CCCC4)c3)c2n1 [Pyronaridine, 4-[(7-Chloro-2-methoxybenzo[b][1, 5]naphthyridin-10-yl)amino]-2,6-bis(1-pyrrolidinylmethyl)phenol phosphate (1:4)]
In vivo [1]
  MTD: 100 mg/kg
Dengue Virus 2
  SI50: 1
Dengue Virus 2; Dengue virus, Vero 76
  EC50: 3.2 µM
[2]; human, po, 400 mg
  t1/2: 241 h
  volume of distribution: 41.2 L/kg
[2]; human
  half-life elimination in whole blood: approximately 17 d
  t1/2 in humans: 195 to 251 h
[2]
  total radioactive half-life: 804 h
Zika virus [3]
  SI50: 1
Zika virus [3]; Zika virus, Huh-7
  EC50: 3.2 µM
In vitro [4]
  CC50: 3.2 µM
In vitro [5]
  fraction unbound: 0.035
CYP1A2
  IC50: > 50 µM
In vitro [6]
  fraction unbound: 0.049
CYP2C9
  IC50: > 50 µM
Chikungunya virus
  SI50: 1
Chikungunya virus; Chikungunya virus, Vero 76
  EC50: 3.2 µM
Murine norovirus
  SI50: 1
  SI90: 1
Murine norovirus; Norwalk virus, RAW267.4
  EC50: > 40 µM
  EC90: > 40 µM
Tacaribe virus
  SI50: 0
Tacaribe virus; Mammarenavirus tacaribeense, Vero
  EC50: > 3.2 µM
Herpes Simplex Virus 1
  SI50: <1
  SI90: <1
Herpes Simplex Virus 1; Human alphaherpesvirus 1, HFF
  EC50: > 6 µM
  EC90: > 6 µM
Rift Valley fever virus
  SI50: 1
Rift Valley fever virus; Rift Valley fever virus, Vero 76
  EC50: 3.2 µM
In vitro [7]
  half-life: 2.33 h
  microsomal CLint: 4.9 µL/min/mg
physchem
  solubility: 168 µM
HeLa cells
  CC50: 3.1 µM
Zika virus [8]
  SI50: 1
Zika virus [8]; Zika virus, Vero 76
  EC50: 3.2 µM
Poliovirus 3
  SI50: 1
Poliovirus 3; Enterovirus C, Vero 76
  EC50: 3.2 µM
[9]
  LD50: 1342 mg/kg
Cytokines and chemokines
  IFN-α/β concentrations: below the level of detection
  cytokine/chemokine levels over vehicle or naïve controls: did not elicit a statistically significant increase
T. cruzi
  efficacy rate: 85%
In vivo [10]; female, 5 mg/kg
  AUC(0-t): 257 ng·h/mL
  Cmax: 54 ng/mL
  Tmax: 4.98 min
In vivo [10]; female, 25 mg/kg
  AUC(0-t): 956 ng·h/mL
  Cmax: 160 ng/mL
In vivo [10]; male, 5 mg/kg
  AUC(0-t): 192 ng·h/mL
  Cmax: 44.4 ng/mL
In vivo [10]; male, 25 mg/kg
  AUC(0-t): 713 ng·h/mL
  Cmax: 115 ng/mL
In vivo [10]; male, 75 mg/kg
  AUC(0-inf): 33900 ng·h/mL
  AUC(0-t): 33000 ng·h/mL
  Cmax: 982 ng/mL
  half-life: 146 h
Plasmodium falciparum
  EC50: 0.0135 µM
Hepatitis C virus
  SI50: 1
  SI90: <1
Hepatitis C virus; Hepatitis C virus, Huh-7
  EC50: 0.78 µM
  EC90: 1.71 µM
Hepatitis B virus
  SI50: <1
  SI90: <1
Hepatitis B virus; [27]
  EC50: 4.52 µM
  EC90: > 100 µM
Influenza A virus H1N1
  SI50: 1
Influenza A virus H1N1; Influenza A virus, H1N1, MDCK
  EC50: 3.2 µM
EBOV in HeLa cells
  SI: ~ 3
[11]
  SI50: 0
  anti-EBOV activity (Zaire strain): lack of antiviral activity
[11]; Zaire ebolavirus, Vero 76
  EC50: > 1.3 µM
In vitro [12]
  microsomal CLint: 4.1 µL/min/mg
Vaccinia Virus
  SI50: <3
  SI90: <3
Vaccinia Virus; Orthopoxvirus vaccinia, HFF
  EC50: > 1.2 µM
  EC90: > 1.2 µM
[13]
  abundance relative to parent drug (Mouse): 100%*
In vitro [14]
  half-life: 0.74 h
  microsomal CLint: 15.6 µL/min/mg
Human cytomegalovirus
  SI50: <3
  SI90: <3
Human cytomegalovirus; Human betaherpesvirus 5, HFF
  EC50: > 1.2 µM
  EC90: > 1.2 µM
[15]
  SI90: 10
[15]; Norovirus, GT1, HG23
  EC50: 3.5 µM
  EC90: 9.7 µM
[16]
  SI50: 1.8
[16]; Vero 76
  EC50: 1.8 µM
[17]
  clinical observations in PK study: ruffled fur and eye squinting
[17]; ip
  time of peak plasma levels: 0.25 and 1
Yellow Fever virus
  SI50: 1
Yellow Fever virus; Yellow fever virus, Vero 76
  EC50: 3.2 µM
[18]
  SI50: 0
[18]; MA104
  EC50: > 7.5 µM
In vitro [19]
  CC50: 7.5 µM
In vitro [20]
  CC50: > 40 µM
CYP2D6
  IC50: 2.23 µM
MERS coronavirus
  SI50: 1
MERS coronavirus; Middle East respiratory syndrome-related coronavirus, Vero 76
  EC50: 3.2 µM
West Nile virus
  SI50: 0
West Nile virus; West Nile virus, Vero 76
  EC50: > 24 µM
In vitro [21]; CC50
  CC50: 3.2 µM
In vitro [21]; approximate CC50
  CC50: ~3 µM
CYP2C19
  IC50: > 50 µM
In vitro [22]
  Papp A→B: 6.46 ×10⁻⁶ cm/s
  Papp B→A: 4.8 ×10⁻⁶ cm/s
  efflux ratio: 0.74
CYP3A4
  IC50: 42.9 µM
In vitro [23]
  half-life: 2.88 h
  microsomal CLint: 4 µL/min/mg

## C[C@@]1(O)[C@H](O)[C@@H](CO)O[C@H]1n1ccc(N)nc1=O [2’C-methyl cytidine]
HG23
  CC50: > 300 µM
[15]; read-out: EC50
  EC50: 6.5 µM

## CCN(CC)CCOc1ccc2c(c1)C(=O)c1cc(OCCN(CC)CC)ccc1-2 [Tilorone, tilorone dihydrochloride]
Cytokines and chemokines
  IFN-α/β levels: below the LLOD
  cytokine/chemokine protein concentrations over vehicle-treated and naïve mice: statistically significant increase in observed protein concentrations

## CCN(CC)CCCC(C)Nc1ccnc2cc(Cl)ccc12 (stereo not shown) [chloroquine]
EBOV [24]
  survival rate: 90%
EBOV [25]
  activity in guinea pig studies: inactive

B1: mAb114 (antibody, chains of the INN, looked up, V domains shown)
VH: EVQLVESGGGLIQPGGSLRLSCAASGFALRMYDMHWVRQTIDKRLEWVSAVGPSGDTTYADSVKGRFAVSRENAKNSLSLQMNSLTAGDTAIYYCVRSDRGVAGLFDSWGQGILVTVSS
VL: DIQMTQSPSSLSASVGDRITITCRASQAFDNYVAWYQQRPGKVPKLLISAASALHAGVPSRFSGSGSGTHFTLTISSLQPEDVATYYCQNYNSAPLTFGGGTKVEIK
EBOV [26]
  survival rates in clinical trial: higher survival rates than ZMapp and remdesivir
